Earlier results as cited in patent US20260226377A1, “BIODEGRADABLE MICROCAPSULES CONTAINING LOW LOG P FRA-GRANCE” (priority 2023, published 2026).

Conditions: octanol/water; source of values not stated (b29 refers to reported values, Pomona92 database)

In the case of O=Cc1ccccc1 [benzaldehyde], the logP value is listed as 1.70.
